From patent US20220257777A1, “HSP90-BINDING CONJUGATES AND COMBINATION THERAPIES THEREOF” (TVA (ABC), LLC, priority 2019, published 2022)
Where two headings read alike, the source gives them in different places. Marks after values point to notes of the source that are not given here.

How the values were obtained:
[1] = Phase 1/2a study, plasma pharmacokinetics of Conjugate 1 and SN-38; assay type: in vivo, human
From the text: (§1) In a Phase 1/2a study of Conjugate 1, patients received weekly Conjugate 1 treatment for 3 of 4 weeks in a 28-day cycle. The patients have histologically or cytologically confirmed advanced solid tumors. Their tumor types included anus, breast, cholangiocarcinoma, colon, Ewing sarcoma, liver, lung, neuroendocrine (unknown primary), ovary, pancreas, salivary gland, and sarcoma. They have received one or more prior lines of anticancer therapy. The patients received flat dosings or dosings based on body surface area (BSA). The doses included 30 mg, 60 mg, 120 mg, 240 mg, 360 mg, 175 mg/m^2, and 200 mg/m^2. […] BSA-based dosing will be used for future studies.
To study pharmacokinetics (PK) profile, multiple plasma samples were collected to measure Conjugate 1 and SN-38 concentrations. […] Elimination half-life was ˜10 hours across all dose ranges. Free SN-38 levels were generally low. AUC is <2% of the conjugate (Conjugate 1) AUC.

[2] = Levels of Conjugate 1 and SN-38 in patient tumor biopsy and plasma at 24 h; assay type: in vivo, human
Method: A pancreatic cancer patient received Conjugate 1 at a dose of 150 mg/m^2 and underwent a tumor biopsy to determine Conjugate 1 and SN-38 levels in tumor and plasma. Samples were taken 24 h after the second dose of 150 mg/m^2 Conjugate 1 from a liver metastasis.
Conjugate 1 and SN-38 levels in tumor are much higher than the levels in plasma.

[3] = Tumor exposure of Conjugate 1 and SN-38 in H1975 mouse xenograft model at 24 h; assay type: in vivo; details: for concentration at 24 h: mouse, in vivo; for SN-38 in tumor at 24 h: H1975 model
[4] = Phase 1/2a study, maximum tolerated dose and adverse events; assay type: in vivo, human
From the text: as §1
AEs are well-managed with dose modification.

advanced solid tumors = experiment: Phase 1/2a study, tumor response; assay type: in vivo, human
From the text: as §1
120-360 mg flat dose and 175 mg/m2 BSA dose were associated with stable disease that was maintained for ≥12 weeks.

[5] = tested on: H1975 (NSCLC) mouse xenograft; experiment: Efficacy in H1975 (NSCLC) mouse xenograft model; assay type: in vivo
[6] = cited from earlier work; for Ratio of tumor level/plasma level: after Onivyde treatment at 72 h; for Amount in Tumor: patient biopsies after Onivyde treatment at 72 h (13 patients); for Amount in Plasma: patients after Onivyde treatment at 72 h (13 patients)
[7] = patients dosed with Conjugate 1, plasma

In the case of `CCc1c2c(nc3ccc(OC(=O)N4CCC(CCn5ccc6cc(-n7c(O)nnc7-c7cc(C(C)C)c(O)cc7O)ccc65)CC4)cc13)-c1cc3c(c(=O)n1C2)COC(=O)[C@]3(O)CC` [Conjugate 1, (S)-4,11-diethyl-4-hydroxy-3,14-dioxo-3,4,12,14-tetrahydro-1H-pyrano[3′,4′:6,7]indolizino[1,2-b]quinolin-9-yl 4-(2-(5-(3-(2,4-dihydroxy-5-isopropylphenyl)-5-hydroxy-4H-1,2,4-triazol-4-yl)-1H-indol-1-yl)ethyl)piperidine-1-carboxylate], the half-life ([1]; human, in vivo, Elimination half-life) is reported as ~10 h, the “Dose proportionality of PK” value ([1]; patients, 30 mg to 200 mg/m^2) is reported as “non-linear PK at lower doses, but greater proportionality was observed at higher doses” and the “Linker stability in circulation” value ([1]; patients, PK analyses) is reported as “stable in circulation”. For the same molecule, the “SN-38 tumor level relative to SN-38 tumor level of patients who received Onivyde” value ([2]; human, in vivo, 24 h) was “about 3.5 fold”, the concentration at 24 h ([3]; 50 mg/kg) was 163 nM and the concentration at 24 h ([3]; 100 mg/kg) was 149 nM. The concentration at 24 h ([3]; 150 mg/kg) was 4990 nM, the “Maximum tolerated dose (MTD), monotherapy” value ([4]; patients with advanced solid tumors, weekly for 3 of 4 weeks in a 28-day cycle) was 175 mg/m^2 and the “Most common AEs” value ([4]; patients, Phase 1) was “nausea, fatigue, diarrhea, vomiting and alopecia”. For the same molecule, the “Overall safety / adverse event profile” value ([4]; patients, Phase 1) was “safe and has an expected adverse (AE) event profile”, the “Time stable disease was maintained” value (advanced solid tumors; 120-360 mg flat dose and 175 mg/m2 BSA dose) was ≥ 12 weeks and the “Patients achieving partial response (PR; reduction of tumor size by 30% or more)” value (advanced solid tumors; of the 17 patients who received Conjugate 1 treatment) was “one”. For the same molecule, the “Efficacy in the xenograft model” value ([5]; weekly dose of 150 mg/kg) was “tumor regression” and the “Efficacy in the xenograft model” value ([5]; weekly doses of 72 mg/kg and 100 mg/kg) was “significant efficacy”.
With `CCc1c2c(nc3ccc(O)cc13)-c1cc3c(c(=O)n1C2)COC(=O)[C@]3(O)CC` [SN-38, reference compound] the “Free SN-38 AUC as share of the conjugate (Conjugate 1) AUC” value [1, 7] was < 2%, the “Free SN-38 levels / systemic exposure to free SN-38” value [1, 7] was “generally low” and the “Free SN-38 levels / systemic exposure to free SN-38” value ([1]; patients dosed with Conjugate 1, plasma, listed as SN-28) was “low”. For the same molecule, the “Amount in Plasma” value ([2]; at 24 h, average of 5 patients dosed at 175 mg/m^2 Conjugate 1) was 25.5* nM, the “Ratio of tumor level/plasma level” value ([2]; at 24 h, tumor at 150 mg/m^2, plasma at 175 mg/m^2 Conjugate 1) was “About 3.4” and the “Amount in Tumor” value ([2]; pancreatic cancer patient, liver metastasis biopsy, 24 h after the second dose of 150 mg/m^2 Conjugate 1) was 86.6 nM. For the same molecule, the “SN-38 in tumor at 24 h” value ([3]; Conjugate 1 50 mg/kg) was 98 nM, the “SN-38 in tumor at 24 h” value ([3]; Conjugate 1 100 mg/kg) was 18.4 nM and the “SN-38 in tumor at 24 h” value ([3]; Conjugate 1 150 mg/kg) was 221 nM. For the same molecule, the “Ratio of tumor level/plasma level” value [6] was “About 4.2”, the “Amount in Tumor” value [6] was 24.5 nM and the “Amount in Plasma” value [6] was 0.0059 µM.
In the case of `CCc1c2c(nc3ccc(OC(=O)N4CCC(N5CCCCC5)CC4)cc13)-c1cc3c(c(=O)n1C2)COC(=O)[C@]3(O)CC` [Irinotecan], the “Ratio of tumor level/plasma level” value [6] is listed as “About 0.5”, the “Ratio of tumor level/plasma level” value ([6]; listed as irinotecan) is listed as “about ½” and the “Amount in Tumor” value [6] is listed as 4043 nM. The “Amount in Plasma” value [6] was 7.921 µM.
